Experimental data as given in BindingDB's records for doi:10.1016/j.chembiol.2006.06.007 (University of Wisconsin-Madison, 2006).
pIC50, pKd: −log10 of the molar value.

Assays:
Assay in all cases: High-throughput FP Assay
[1] = target: T1, UDP-galactopyranose mutase (Klebsiella pneumoniae, UniProt Q762K7)
[2] = target: T2, UDP-galactopyranose mutase (Mycobacterium tuberculosis (strain ATCC 25618 / H37Rv), UniProt P9WIQ1)
[3] = target: T1, UDP-galactopyranose mutase; remark: listed apart in the source
Protocol: (§1) To access the ability of compounds to inhibit the catalytic activity of UGM, an HPLC assay was employed. Inhibition constants were determined by monitoring UGM activity at a single substrate concentration while varying inhibitor concentration.

[4] = target: T2, UDP-galactopyranose mutase; remark: listed apart in the source
Protocol: as §1

T1 sequence (Q762K7 whole entry): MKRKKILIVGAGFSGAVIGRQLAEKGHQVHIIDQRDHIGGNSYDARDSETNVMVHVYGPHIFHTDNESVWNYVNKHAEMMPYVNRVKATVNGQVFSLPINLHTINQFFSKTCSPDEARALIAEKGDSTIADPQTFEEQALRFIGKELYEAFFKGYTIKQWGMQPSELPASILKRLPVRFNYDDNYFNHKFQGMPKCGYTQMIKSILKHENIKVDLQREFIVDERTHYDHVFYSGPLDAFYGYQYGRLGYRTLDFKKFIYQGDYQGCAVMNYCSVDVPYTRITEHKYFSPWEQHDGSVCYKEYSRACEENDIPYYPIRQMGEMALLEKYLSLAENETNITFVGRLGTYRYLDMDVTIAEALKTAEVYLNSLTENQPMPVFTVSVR
T2 sequence (P9WIQ1 whole entry): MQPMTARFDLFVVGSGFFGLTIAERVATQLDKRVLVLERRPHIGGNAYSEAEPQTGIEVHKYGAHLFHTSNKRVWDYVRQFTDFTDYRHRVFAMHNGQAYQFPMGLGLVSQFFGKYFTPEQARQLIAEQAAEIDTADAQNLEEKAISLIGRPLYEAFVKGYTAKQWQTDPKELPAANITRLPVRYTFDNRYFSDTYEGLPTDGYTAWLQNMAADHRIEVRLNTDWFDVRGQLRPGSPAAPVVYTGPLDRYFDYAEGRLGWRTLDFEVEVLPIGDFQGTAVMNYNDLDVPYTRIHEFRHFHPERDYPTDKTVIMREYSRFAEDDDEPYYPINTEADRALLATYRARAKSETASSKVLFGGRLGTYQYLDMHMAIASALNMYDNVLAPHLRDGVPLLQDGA

O=C(O)C(Cc1ccccc1)N1C(=O)/C(=C\c2ccccc2)SC1=S (stereo unspecified) [Thiazolidinone core, 29]
pKd [1]: < 4.48 | pKd [2]: < 4.48

O=C1Nc2ccccc2/C1=C1/SC(=S)N(C(Cc2ccccc2)C(=O)O)C1=O (stereo unspecified) [Thiazolidinone core, 8]
pIC50 [3]: 4.03 | pKd [1]: 4.97

O=C(O)C(Cc1ccccc1)N1C(=O)/C(=C\c2cccc(Br)c2)SC1=S (stereo unspecified) [Thiazolidinone core, 6]
pIC50 [3]: 5.80 | pIC50 [4]: 4.19 | pKd [1]: 5.03 | pKd [2]: 4.92

CCOC(=O)c1ccc(-c2ccc(/C=C3\C(=O)N(c4ccc(S(N)(=O)=O)cc4)N=C3C(F)(F)F)o2)cc1 [Pyrazol analog, 3]
pKd [1]: 5.51

O=C(O)C(Cc1ccccc1)N1C(=O)/C(=C\c2cccc(F)c2)SC1=S (stereo unspecified) [Thiazolidinone core, 23]
pKd [1]: < 4.48 | pKd [2]: < 4.48

COc1cccc(/C=C2/SC(=S)N(C(Cc3ccccc3)C(=O)O)C2=O)c1 (stereo unspecified) [Thiazolidinone core, 28]
pKd [1]: < 4.48 | pKd [2]: < 4.48

CC(C(=O)O)N1C(=O)/C(=C2/C(=O)Nc3ccccc32)SC1=S (stereo unspecified) [Thiazolidinone core, 19]
pKd [1]: < 4.48 | pKd [2]: < 3.48

O=C(O)[C@H](Cc1ccccc1)N1C(=O)/C(=C/c2ccc(Br)cc2)SC1=S [Thiazolidinone core, 24]
pIC50 [4]: 4.46 | pKd [1]: < 4.48 | pKd [2]: 5.03

O=C(O)C(Cc1ccccc1)N1C(=O)/C(=C\c2ccccc2Br)SC1=S (stereo unspecified) [Thiazolidinone core, 25]
pKd [1]: < 4.48 | pKd [2]: < 4.48

O=C1c2cccc3c([N+](=O)[O-])ccc(c23)C(=O)N1Cc1cccnc1 [Pyridin analog, 11]
pKd [2]: 5.10

O=C(O)C(Cc1ccccc1)N1C(=O)/C(=C\c2cccc([N+](=O)[O-])c2)SC1=S (stereo unspecified) [Thiazolidinone core, 26]
pKd [1]: < 4.48 | pKd [2]: < 4.48

O=C(O)N1C(=O)/C(=C\c2ccccc2)SC1=S [Thiazolidinone core, 31]
pKd [1]: < 4.48 | pKd [2]: < 3.48

CC(C(=O)O)N1C(=O)/C(=C\c2cccc(Br)c2)SC1=S (stereo unspecified) [Thiazolidinone core, 16]
pKd [1]: < 4.48 | pKd [2]: < 3.48

O=C(O)C(Cc1ccc(O)cc1)N1C(=O)/C(=C\c2cccc(Br)c2)SC1=S (stereo unspecified) [Thiazolidinone core, 17]
pKd [1]: < 4.95 | pKd [2]: < 4.48

O=C(O)CN1C(=O)/C(=C2/C(=O)Nc3ccccc32)SC1=S [Thiazolidinone core, 18]
pKd [1]: < 4.48 | pKd [2]: < 3.48

Cc1cccc(/C=C2/SC(=S)N(C(Cc3ccccc3)C(=O)O)C2=O)c1 (stereo unspecified) [Thiazolidinone core, 27]
pKd [1]: < 4.48 | pKd [2]: < 4.48

CCOC(=O)c1cc(-c2ccc(/C=C3\C(=O)N(c4ccc(S(N)(=O)=O)cc4)N=C3C(F)(F)F)o2)ccc1Cl [Pyrazol analog, 4]
pKd [1]: 5.17

O=C1Nc2ccccc2/C1=C1/SC(=S)N(C(Cc2ccc(O)cc2)C(=O)O)C1=O (stereo unspecified) [Thiazolidinone core, 20]
pKd [1]: 4.85 | pKd [2]: < 4.48

O=C1N/C(=N\S(=O)(=O)c2ccccc2)S/C1=C1/C(=O)Nc2ccc([N+](=O)[O-])cc21 [Thiazolidinone core, 5]
pIC50 [3]: 4.77 | pKd [1]: 5.40

O=C(O)C(Cc1ccccc1)N1C(=O)/C(=C/c2cccc(I)c2)SC1=S (stereo unspecified) [Thiazolidinone core, 22]
pIC50 [4]: 4.39 | pKd [1]: 5.20 | pKd [2]: 5.22

O=C(O)C(Cc1ccccc1)N1C(=O)/C(=C/c2cccc(Cl)c2)SC1=S (stereo unspecified) [Thiazolidinone core, 21]
pIC50 [4]: 4.31 | pKd [1]: 4.67 | pKd [2]: 4.80

NS(=O)(=O)c1ccc(N2N=C(C(F)(F)F)/C(=C/c3ccc(-c4ccc5c(c4)C(=O)NC5=O)o3)C2=O)cc1 [Pyrazol analog, 2]
pKd [1]: 5.82

O=c1/c(=C/c2cc([N+](=O)[O-])c(O)cc2Cl)sc2nc3ccccc3n12 [Thiazolidinone core, 10]
pIC50 [3]: 5.40 | pIC50 [4]: 7.55 | pKd [2]: 5.28

O=C(O)C(Cc1ccccc1)N1C(=O)/C(=C/c2cccc(Br)c2)SC1=S (stereo unspecified) [Thiazolidinone core, 15]
pKd [1]: < 4.48 | pKd [2]: < 4.48

O=C1Nc2ccc([N+](=O)[O-])cc2/C1=C1/SC(=S)N(C(Cc2ccccc2)C(=O)O)C1=O (stereo unspecified) [Thiazolidinone core, 30]
pIC50 [4]: < 4.00 | pKd [1]: 5.24 | pKd [2]: 5.00

O=C(O)c1cc(NC(=S)NCCCCCCOP(=O)(O)OP(=O)(O)OCC2OC(n3ccc(=O)[nH]c3=O)C(O)C2O)ccc1-c1c2ccc(=O)cc-2oc2cc(O)ccc12 (stereo unspecified) [Fluorescent Probe 1]
pIC50 [4]: 5.24 | pKd [1]: 7.00 | pKd [2]: 6.80
